Data: patent US9822164B2, “Labelling agent, and composition for labelling a protein, method for labelling a protein, and method for detecting a protein” (KOREA INSTITUTE OF SCIENCE AND TECHNOLOGY, priority 2014, dated 2017)

Columns and labels:
[1] = Maximum values of absorbance and fluorescence of the compounds in DMSO; type: physicochemical
Method: Experimental device, analyzer and reagents used in Examples and comparative experiments are the same as follows. FT-NMR spectroscopy is performed using Bruker Avance 400, and LC/MS analysis is performed using Thermo Dionex ultimate 3000/Velos pro on ion-trap mass spectrometer (ITMS). All reagents purchased from Aldrich are used without additional purification. Whatman filter papers having a diameter of 125 mm are used. Of derivatives used in experiments, 2-(2-Aminophenyl)-1H-benzimidazole) (ABI) is purchased from Aldrich, and NMR analysis and fluorescence/absorbance values are recorded by the method known in the art. […]

HSA = target: T1, HSA (Homo sapiens, UniProt P02768); assay: Labelling (photocrosslinking) of protein by UV irradiation, gel electrophoresis, fluorescence intensity; type: binding; conditions: 5 minutes after UV irradiation, about 254 nm; FIG. 1b
T1 construct: purchased Sigma Aldrich
Method: (§1) Proteins of BSA, HSA, peroxidase, and lysozyme are treated with the compounds synthesized or purchased in Example 1, and irradiated with UV at about 254 nm. Then, binding of the compound and the protein over UV irradiation time is examined by gel electrophoresis. A gel electrophoresis apparatus (Bio-Rad) and a small vertical gel electrophoresis apparatus are connected and used for gel electrophoresis. For experiment, a 12% SDS gel and a running buffer are directly prepared as follows and used. 12% SDS gel is prepared by mixing 7.9 ml of H2O, 6.5 ml of pH […] Tris-HCl buffer, 10 ml of 30% Acryl amide, 250 μl of 10% SDS gel, 250 μl of APS, and 10 μl of TMEDE. 1× running buffer is prepared by mixing 200 ml of 10×TGS buffer and 1800 ml of H2O.
(§2) Proteins of BSA, HAS, peroxidase, and lysozyme are purchased from Sigma Aldrich. Fluorescence intensity of the labeled protein is measured using BIO-RAD ChemiDoc, and Blue Epi and Green Epi are used as a light source, and 530 nm emission (28 nm bandwidth) and 650 nm emission (50 nm bandwidth) filters are used according to fluorescence wavelength.
(§3) Y axis of FIGS. 1a through 1d represents fluorescence intensity, indicating photocrosslinking degree of the compound and protein.

peroxidase = assay: as above; type: binding; conditions: 5 minutes after UV irradiation, about 254 nm; FIG. 1c
Method: as §1, §2, §3

BSA = target: T2, BSA (Bos taurus, UniProt P02769); assay: as above; type: binding; conditions: 5 minutes after UV irradiation, about 254 nm; FIG. 1a
T2 construct: purchased Sigma Aldrich
Method: as §1, §2, §3

lysozyme = target: T3, lysozyme (Gallus gallus, UniProt P00698); assay: as above; type: binding; conditions: 5 minutes after UV irradiation, about 254 nm; FIG. 1d
T3 construct: purchased Sigma Aldrich
Method: as §1, §2, §3

[2] = test system: BSA, HSA, peroxidase, and lysozyme; assay: Protein labelling, results of FIGS. 1a to 1d taken together; type: binding
Method: as §1, §2
Y axis of FIGS. 1a through 1d represents fluorescence intensity, indicating photocrosslinking degree of the compound and protein. […]

T2 sequence (P02769 25-607): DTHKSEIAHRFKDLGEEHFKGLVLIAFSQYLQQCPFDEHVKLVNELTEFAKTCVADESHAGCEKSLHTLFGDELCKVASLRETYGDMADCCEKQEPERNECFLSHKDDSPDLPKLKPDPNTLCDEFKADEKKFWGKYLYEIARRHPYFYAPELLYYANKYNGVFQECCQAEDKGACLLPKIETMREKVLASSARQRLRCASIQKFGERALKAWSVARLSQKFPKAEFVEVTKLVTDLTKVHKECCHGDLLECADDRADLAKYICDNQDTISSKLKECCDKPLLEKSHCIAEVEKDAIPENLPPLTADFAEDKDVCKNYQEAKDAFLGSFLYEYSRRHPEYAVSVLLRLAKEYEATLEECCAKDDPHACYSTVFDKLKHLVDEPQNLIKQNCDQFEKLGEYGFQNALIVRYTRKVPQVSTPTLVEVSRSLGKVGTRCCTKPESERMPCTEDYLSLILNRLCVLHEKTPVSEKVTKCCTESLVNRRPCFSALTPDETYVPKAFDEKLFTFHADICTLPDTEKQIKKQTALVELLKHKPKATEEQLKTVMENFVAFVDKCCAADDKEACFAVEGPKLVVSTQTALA
T1 sequence (P02768 25-609): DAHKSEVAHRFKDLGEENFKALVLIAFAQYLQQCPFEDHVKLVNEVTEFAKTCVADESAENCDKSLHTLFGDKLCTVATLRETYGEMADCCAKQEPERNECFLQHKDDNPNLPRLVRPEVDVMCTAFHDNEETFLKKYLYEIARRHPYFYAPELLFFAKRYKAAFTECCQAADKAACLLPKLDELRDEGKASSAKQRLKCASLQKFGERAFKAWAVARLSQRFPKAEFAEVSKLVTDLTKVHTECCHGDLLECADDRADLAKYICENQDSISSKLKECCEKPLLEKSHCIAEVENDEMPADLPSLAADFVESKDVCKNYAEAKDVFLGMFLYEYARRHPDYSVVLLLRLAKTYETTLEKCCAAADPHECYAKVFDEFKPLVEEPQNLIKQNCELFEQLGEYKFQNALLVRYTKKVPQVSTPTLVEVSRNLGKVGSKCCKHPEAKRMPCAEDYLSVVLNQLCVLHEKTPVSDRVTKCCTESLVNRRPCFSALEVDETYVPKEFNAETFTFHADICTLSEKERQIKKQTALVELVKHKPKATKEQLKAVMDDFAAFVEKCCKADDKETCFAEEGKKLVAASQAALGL
T3 sequence (P00698 19-147): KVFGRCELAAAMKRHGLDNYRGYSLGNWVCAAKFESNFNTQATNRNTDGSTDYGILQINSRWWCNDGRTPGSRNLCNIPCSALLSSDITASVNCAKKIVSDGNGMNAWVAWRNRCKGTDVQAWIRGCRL

Row | Structure (SMILES) | Absorbance (maximum value) [1] [nm] | Fluorescence (maximum value) [1] [nm] | Labeling of HSA (fluorescence intensity, photocrosslinking degree) (HSA) | Labeling of peroxidase (fluorescence intensity, photocrosslinking degree) (peroxidase) | Labeling of BSA (fluorescence intensity, photocrosslinking degree) (BSA) | Labeling of lysozyme (fluorescence intensity, photocrosslinking degree) (lysozyme) | Photocrosslinking property, comparison among the compounds [2]
1 | Nc1ccccc1-c1nc2ccccc2[nH]1 [ABI, 2-(2-Aminophenyl)-1H-benzimidazole] | 360 | 415 | significant labeling | significant labeling |  |  | 
2 | Oc1ccccc1-c1nc2ccccc2[nH]1 [HBI, 2-(2-hydroxyphenyl)benzimidazole] | 320 | 463 | significant labeling | significant labeling | significant labeling | significant labeling | highest photocrosslinking property

The remaining lines, values ahead:

Row | Absorbance (maximum value) [1] [nm] | Fluorescence (maximum value) [1] [nm] | Labeling of HSA (fluorescence intensity, photocrosslinking degree) (HSA) | Labeling of peroxidase (fluorescence intensity, photocrosslinking degree) (peroxidase) | Labeling of BSA (fluorescence intensity, photocrosslinking degree) (BSA) | Labeling of lysozyme (fluorescence intensity, photocrosslinking degree) (lysozyme) | Photocrosslinking property, comparison among the compounds [2] | Structure (SMILES)
3 | 380 | 480 |  |  | significant labeling |  |  | Oc1ccccc1-c1nc2ccccc2o1 [HBO, 2-(2-hydroxyphenyl)benzoxazole]
4 | 350 | 515 |  |  |  |  |  | Oc1ccccc1-c1nc2ccccc2s1 [HBT, 2-(2-hydroxyphenyl)benzothiazole]
5 | 360 | 448 | significant labeling | significant labeling | significant labeling | significant labeling |  | CCN(CC)c1ccc2nc(-c3ccccc3O)[nH]c2c1 [HDBI, 2-(2-hydroxyphenyl)-5-(diethylamino)benzimidazole]
